Experimental data reported in the NIST ThermoML archive (doi:10.1016/j.fluid.2015.04.017).

Assay: refractive index (Na D-line) (dimensionless); xn = mol fraction of the nth substance listed
Conditions: 101 kPa, Liquid, Standard Abbe refractometry

CCOC(=O)C(C)O (stereo not drawn) [DL-ethyl lactate] + CCC(C)=O
refractive index
Conditions | x1 = 0.0999 | x1 = 0.1999 | x1 = 0.3001 | x1 = 0.4001 | x1 = 0.5 | x1 = 0.5998 | x1 = 0.6999 | x1 = 0.8 | x1 = 0.9001 | x1 = 1
288.15 K | 1.3864 | 1.39058 | 1.39458 | 1.39808 | 1.40142 | 1.40472 | 1.40745 | 1.41049 | 1.41285 | 1.41571
293.15 K | 1.38393 | 1.38819 | 1.39209 | 1.39574 | 1.39914 | 1.40234 | 1.40537 | 1.40818 | 1.41078 | 1.41307
298.15 K | 1.38138 | 1.38566 | 1.38959 | 1.3933 | 1.39673 | 1.39997 | 1.40302 | 1.40585 | 1.40846 | 1.41076
303.15 K | 1.37882 | 1.38314 | 1.38712 | 1.39082 | 1.39428 | 1.39754 | 1.40061 | 1.40346 | 1.4061 | 1.40843
308.15 K | 1.37622 | 1.38055 | 1.38457 | 1.38833 | 1.39183 | 1.39511 | 1.39819 | 1.40105 | 1.40371 | 1.4061
313.15 K | 1.37361 | 1.37791 | 1.38199 | 1.38577 | 1.38931 | 1.39263 | 1.39575 | 1.39864 | 1.40133 | 1.40374
318.15 K | 1.37092 | 1.37524 | 1.37932 | 1.38316 | 1.38671 | 1.39001 | 1.39312 | 1.396 | 1.39886 | 1.40136
323.15 K | 1.36811 | 1.3724 | 1.3765 | 1.38033 | 1.38393 | 1.38737 | 1.39051 | 1.39348 | 1.39642 | 1.39898

CCOC(=O)C(C)O (stereo not drawn) [DL-ethyl lactate] + CN1CCCC1=O
refractive index
Conditions | x1 = 0.0999 | x1 = 0.2 | x1 = 0.3001 | x1 = 0.4 | x1 = 0.4997 | x1 = 0.6 | x1 = 0.7002 | x1 = 0.7999 | x1 = 0.8997 | x1 = 1
288.15 K | 1.46662 | 1.46071 | 1.45507 | 1.44952 | 1.44392 | 1.43817 | 1.43232 | 1.42648 | 1.42076 | 1.41537
293.15 K | 1.46449 | 1.45857 | 1.4529 | 1.44734 | 1.44172 | 1.43597 | 1.43014 | 1.4243 | 1.41855 | 1.41307
298.15 K | 1.46235 | 1.45645 | 1.45078 | 1.4452 | 1.43956 | 1.4338 | 1.42795 | 1.42209 | 1.41631 | 1.41076
303.15 K | 1.46021 | 1.45431 | 1.44863 | 1.44302 | 1.43738 | 1.43161 | 1.42575 | 1.41988 | 1.41406 | 1.40843
308.15 K | 1.45809 | 1.45218 | 1.44646 | 1.44084 | 1.43516 | 1.42939 | 1.42354 | 1.41768 | 1.41183 | 1.4061
313.15 K | 1.45594 | 1.45005 | 1.44428 | 1.43859 | 1.43288 | 1.4271 | 1.42126 | 1.41542 | 1.40957 | 1.40374
318.15 K | 1.45386 | 1.44796 | 1.44218 | 1.43648 | 1.43073 | 1.4249 | 1.41902 | 1.41312 | 1.40722 | 1.40136
323.15 K | 1.45178 | 1.44586 | 1.44006 | 1.43431 | 1.42854 | 1.42269 | 1.41679 | 1.41086 | 1.40492 | 1.39898

CCOC(=O)C(C)O (stereo not drawn) [DL-ethyl lactate] + Cc1ccccc1
refractive index
Conditions | x1 = 0.1001 | x1 = 0.2001 | x1 = 0.3 | x1 = 0.4 | x1 = 0.4998 | x1 = 0.6001 | x1 = 0.7 | x1 = 0.7999 | x1 = 0.9 | x1 = 1
288.15 K | 1.48891 | 1.47943 | 1.47043 | 1.46159 | 1.45318 | 1.44507 | 1.43735 | 1.42997 | 1.42267 | 1.41537
293.15 K | 1.48604 | 1.47659 | 1.46764 | 1.45886 | 1.45051 | 1.44249 | 1.43485 | 1.42751 | 1.42032 | 1.41307
298.15 K | 1.48316 | 1.47373 | 1.46482 | 1.45613 | 1.44784 | 1.43988 | 1.43231 | 1.42508 | 1.41794 | 1.41076
303.15 K | 1.4803 | 1.47091 | 1.46199 | 1.45336 | 1.44515 | 1.43728 | 1.4298 | 1.42263 | 1.41555 | 1.40843
308.15 K | 1.47745 | 1.46812 | 1.45914 | 1.45069 | 1.44254 | 1.43474 | 1.42731 | 1.42018 | 1.41313 | 1.4061
313.15 K | 1.47462 | 1.46532 | 1.45628 | 1.44801 | 1.4399 | 1.43218 | 1.4248 | 1.41773 | 1.4107 | 1.40374
318.15 K | 1.47184 | 1.46262 | 1.45368 | 1.44558 | 1.4376 | 1.42987 | 1.42243 | 1.41531 | 1.40819 | 1.40136
323.15 K | 1.46909 | 1.45995 | 1.45131 | 1.44313 | 1.43523 | 1.42752 | 1.42006 | 1.41291 | 1.40578 | 1.39898
